# Test results taken from PubChem BioAssay AID2060488 (Molecular Pharmacology Branch, DTP, NCI, 2025).
# Tested on: 966289-007-R4-J1-PDC complex spheroid viability
# Test: Anticancer human tumor 966289-007-R4-J1-PDC patient-derived pancreatic adenocarcinoma cell line growth inhibition [GQUAD]
# Conditions: for IC50: curve of first compound; for viability, T/C: stronger effect = lower value
# In short: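 Multi-cell-type spheroids of tumor cells with HUVEC and mesenchymal stem cells, treated with drug combinations. Concentrations descend in half-log steps from near clinical Cmax, or from 10 microM where Cmax is unknown; viability read-out.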
# [1] = second compound 0.0316 µM, first compound 0.0316 µM
# [2] = second compound 0.0316 µM, first compound 0.1 µM
# [3] = second compound 0.0316 µM, first compound 0.316 µM
# [4] = second compound 0.0316 µM, first compound 1 µM
# [5] = second compound 0.0316 µM, first compound 3.16 µM
# [6] = second compound 0.0316 µM, first compound 10 µM
# [7] = second compound 0.1 µM, first compound 0.0316 µM
# [8] = second compound 0.1 µM, first compound 0.1 µM
# [9] = second compound 0.1 µM, first compound 0.316 µM
# [10] = second compound 0.1 µM, first compound 1 µM
# [11] = second compound 0.1 µM, first compound 3.16 µM
# [12] = second compound 0.1 µM, first compound 10 µM
# [13] = second compound 0.316 µM, first compound 0.0316 µM
# [14] = second compound 0.316 µM, first compound 0.1 µM
# [15] = second compound 0.316 µM, first compound 0.316 µM
# [16] = second compound 0.316 µM, first compound 1 µM
# [17] = second compound 0.316 µM, first compound 3.16 µM
# [18] = second compound 0.316 µM, first compound 10 µM
# [19] = second compound 1 µM, first compound 0.0316 µM
# [20] = second compound 1 µM, first compound 0.1 µM
# [21] = second compound 1 µM, first compound 0.316 µM
# [22] = second compound 1 µM, first compound 1 µM
# [23] = second compound 1 µM, first compound 3.16 µM
# [24] = second compound 1 µM, first compound 10 µM
# [25] = second compound 3.16 µM, first compound 0.0316 µM
# [26] = second compound 3.16 µM, first compound 0.1 µM
# [27] = second compound 3.16 µM, first compound 0.316 µM
# [28] = second compound 3.16 µM, first compound 1 µM
# [29] = second compound 3.16 µM, first compound 3.16 µM
# [30] = second compound 3.16 µM, first compound 10 µM
# [31] = second compound 10 µM, first compound 0.0316 µM
# [32] = second compound 10 µM, first compound 0.1 µM
# [33] = second compound 10 µM, first compound 0.316 µM
# [34] = second compound 10 µM, first compound 1 µM
# [35] = second compound 10 µM, first compound 3.16 µM
# [36] = second compound 10 µM, first compound 10 µM
# 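Further: spheroids exposed to the agents for seven days before readout.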
# 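Wherever viability, T/C is given: percent viability relative to DMSO vehicle control wells taken as 100%.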
smiles,measurement,setting,value
COc1cc(C2c3cc4c(cc3C(OC3OC5COC(C)OC5C(O)C3O)C3COC(=O)C23)OCO4)cc(OC)c1O (stereo not drawn) + Cc1cnc(CNC(=O)c2c(=O)c3ccc(N4CCCN(C)CC4)nc3n3c2sc2ccccc23)cn1,IC50,second compound 0.0316 µM,110 nM
same,IC50,second compound 0.1 µM,< 31.6 nM
same,IC50,second compound 0.316 µM,< 31.6 nM
same,IC50,second compound 1 µM,< 31.6 nM
same,IC50,second compound 3.16 µM,< 31.6 nM
same,IC50,second compound 10 µM,< 31.6 nM
same,"viability, T/C",[1],88%
same,"viability, T/C",[2],53.8%
same,"viability, T/C",[3],10.1%
same,"viability, T/C",[4],2.94%
same,"viability, T/C",[5],2.18%
same,"viability, T/C",[6],0.59%
same,"viability, T/C",[7],29.7%
same,"viability, T/C",[8],19.7%
same,"viability, T/C",[9],8.71%
same,"viability, T/C",[10],3.16%
same,"viability, T/C",[11],1.36%
same,"viability, T/C",[12],0.71%
same,"viability, T/C",[13],10.3%
same,"viability, T/C",[14],9.3%
same,"viability, T/C",[15],5.22%
same,"viability, T/C",[16],3.25%
same,"viability, T/C",[17],1.25%
same,"viability, T/C",[18],1.38%
same,"viability, T/C",[19],6.49%
same,"viability, T/C",[20],6.05%
same,"viability, T/C",[21],4.38%
same,"viability, T/C",[22],2.66%
same,"viability, T/C",[23],1.27%
same,"viability, T/C",[24],0.48%
same,"viability, T/C",[25],4.76%
same,"viability, T/C",[26],4.96%
same,"viability, T/C",[27],2.85%
same,"viability, T/C",[28],0.6%
same,"viability, T/C",[29],0.46%
same,"viability, T/C",[30],0.09%
same,"viability, T/C",[31],0.03%
same,"viability, T/C",[32],0.07%
same,"viability, T/C",[33],0.09%
same,"viability, T/C",[34],0.06%
same,"viability, T/C",[35],0.12%
same,"viability, T/C",[36],0.12%
COc1cccc2c1C(=O)c1c(O)c3c(c(O)c1C2=O)CC(O)(C(=O)CO)CC3OC1CC(N)C(O)C(C)O1 (stereo not drawn) + Cc1cnc(CNC(=O)c2c(=O)c3ccc(N4CCCN(C)CC4)nc3n3c2sc2ccccc23)cn1,IC50,second compound 0.0316 µM,< 31.6 nM
same,IC50,second compound 0.1 µM,< 31.6 nM
same,IC50,second compound 0.316 µM,< 31.6 nM
same,IC50,second compound 1 µM,< 31.6 nM
same,IC50,second compound 3.16 µM,< 31.6 nM
same,IC50,second compound 10 µM,< 31.6 nM
same,"viability, T/C",[1],43.6%
same,"viability, T/C",[2],6.62%
same,"viability, T/C",[3],2.17%
same,"viability, T/C",[4],0.54%
same,"viability, T/C",[5],0.2%
same,"viability, T/C",[6],0.39%
same,"viability, T/C",[7],14.1%
same,"viability, T/C",[8],7.19%
same,"viability, T/C",[9],2.36%
same,"viability, T/C",[10],0.41%
same,"viability, T/C",[11],0.24%
same,"viability, T/C",[12],0.54%
same,"viability, T/C",[13],8.14%
same,"viability, T/C",[14],4.76%
same,"viability, T/C",[15],1.77%
same,"viability, T/C",[16],0.41%
same,"viability, T/C",[17],0.17%
same,"viability, T/C",[18],0.26%
same,"viability, T/C",[19],4.98%
same,"viability, T/C",[20],3.35%
same,"viability, T/C",[21],1.44%
same,"viability, T/C",[22],0.09%
same,"viability, T/C",[23],0.13%
same,"viability, T/C",[24],0.32%
same,"viability, T/C",[25],3.68%
same,"viability, T/C",[26],1.92%
same,"viability, T/C",[27],0.11%
same,"viability, T/C",[28],0.05%
same,"viability, T/C",[29],0.1%
same,"viability, T/C",[30],0.1%
same,"viability, T/C",[31],0.03%
same,"viability, T/C",[32],0.08%
same,"viability, T/C",[33],0.1%
same,"viability, T/C",[34],0.07%
same,"viability, T/C",[35],0.16%
same,"viability, T/C",[36],0.24%
Nc1ccn(C2OC(CO)C(O)C2(F)F)c(=O)n1 (stereo not drawn) + Cc1cnc(CNC(=O)c2c(=O)c3ccc(N4CCCN(C)CC4)nc3n3c2sc2ccccc23)cn1,IC50,second compound 0.0316 µM,< 31.6 nM
same,IC50,second compound 0.1 µM,< 31.6 nM
same,IC50,second compound 0.316 µM,< 31.6 nM
same,IC50,second compound 1 µM,< 31.6 nM
same,IC50,second compound 3.16 µM,< 31.6 nM
same,IC50,second compound 10 µM,< 31.6 nM
same,"viability, T/C",[1],2.51%
same,"viability, T/C",[2],0.72%
same,"viability, T/C",[3],0.68%
same,"viability, T/C",[4],0.69%
same,"viability, T/C",[5],0.58%
same,"viability, T/C",[6],0.61%
same,"viability, T/C",[7],4.19%
same,"viability, T/C",[8],0.89%
same,"viability, T/C",[9],0.87%
same,"viability, T/C",[10],0.9%
same,"viability, T/C",[11],0.77%
same,"viability, T/C",[12],0.88%
same,"viability, T/C",[13],5.63%
same,"viability, T/C",[14],1.42%
same,"viability, T/C",[15],1.15%
same,"viability, T/C",[16],0.95%
same,"viability, T/C",[17],1.35%
same,"viability, T/C",[18],1.02%
same,"viability, T/C",[19],3.58%
same,"viability, T/C",[20],1.01%
same,"viability, T/C",[21],0.82%
same,"viability, T/C",[22],0.79%
same,"viability, T/C",[23],0.88%
same,"viability, T/C",[24],0.78%
same,"viability, T/C",[25],2.86%
same,"viability, T/C",[26],0.11%
same,"viability, T/C",[27],0.1%
same,"viability, T/C",[28],0.06%
same,"viability, T/C",[29],0.32%
same,"viability, T/C",[30],0.67%
same,"viability, T/C",[31],0.04%
same,"viability, T/C",[32],0.07%
same,"viability, T/C",[33],0.09%
same,"viability, T/C",[34],0.07%
same,"viability, T/C",[35],0.92%
same,"viability, T/C",[36],0.6%
O=c1[nH]cc(F)c(=O)[nH]1 + Cc1cnc(CNC(=O)c2c(=O)c3ccc(N4CCCN(C)CC4)nc3n3c2sc2ccccc23)cn1,IC50,second compound 0.0316 µM,152 nM
same,IC50,second compound 0.1 µM,< 31.6 nM
same,IC50,second compound 0.316 µM,< 31.6 nM
same,IC50,second compound 1 µM,< 31.6 nM
same,IC50,second compound 3.16 µM,< 31.6 nM
same,IC50,second compound 10 µM,< 31.6 nM
same,"viability, T/C",[1],110%
same,"viability, T/C",[2],70.7%
same,"viability, T/C",[3],13.4%
same,"viability, T/C",[4],6.62%
same,"viability, T/C",[5],6.16%
same,"viability, T/C",[6],7.17%
same,"viability, T/C",[7],35.3%
same,"viability, T/C",[8],38.2%
same,"viability, T/C",[9],16.7%
same,"viability, T/C",[10],9.09%
same,"viability, T/C",[11],8.85%
same,"viability, T/C",[12],9.1%
same,"viability, T/C",[13],11%
same,"viability, T/C",[14],14.4%
same,"viability, T/C",[15],13.6%
same,"viability, T/C",[16],10.8%
same,"viability, T/C",[17],10.2%
same,"viability, T/C",[18],12.7%
same,"viability, T/C",[19],6.94%
same,"viability, T/C",[20],8.36%
same,"viability, T/C",[21],9.57%
same,"viability, T/C",[22],9.08%
same,"viability, T/C",[23],8.58%
same,"viability, T/C",[24],8.28%
same,"viability, T/C",[25],4.97%
same,"viability, T/C",[26],5.62%
same,"viability, T/C",[27],7.29%
same,"viability, T/C",[28],6.64%
same,"viability, T/C",[29],6.67%
same,"viability, T/C",[30],8.36%
same,"viability, T/C",[31],0.04%
same,"viability, T/C",[32],0.08%
same,"viability, T/C",[33],2.48%
same,"viability, T/C",[34],0.28%
same,"viability, T/C",[35],2.43%
same,"viability, T/C",[36],0.18%
